Measured values: patent publication US20250360134A1, “6-6 OR 5-6 FUSED BICYCLIC COMPOUNDS COMPRISING A PYRI(MI)DINE RING USEFUL IN THE|TREATMENT OF INFECTIOUS DISEASES” (INSTITUT NATIONAL DE LA SANTE ET DE LA RECHERCHE MEDICALE …, priority 2020, published 2025)
Structures can show the parent of a compound that is named as a salt. Where two headings read alike, the source gives them in different places.

How the values were obtained:
SARS-CoV-2 = assay: microbe, parasite or virus in culture; type: cell-based; details: Severe acute respiratory syndrome coronavirus 2; A549 cells expressing human ACE2, 72 hours after infection, RT-PCR of the N-gene; read-out: IC50 RTqPCR SARS-CoV-2
[1] = system: human telomeric sequence F21T; assay: FRET-melting, F21T; details: K+ condition, 2 μM compound, 0.2 μM oligonucleotide
[2] = system: human duplex sequence FdxT; assay: FRET-melting, FdxT; details: duplex control, K+ condition, 2 μM compound, 0.2 μM oligonucleotide
[3] = system: Plasmodium telomeric sequence FPf1T; assay: FRET-melting, FPf1T; details: K+ condition, 2 μM compound, 0.2 μM oligonucleotide
[4] = system: Plasmodium telomeric sequence FPf8T; assay: FRET-melting, FPf8T; details: K+ condition, 2 μM compound, 0.2 μM oligonucleotide
[5] = system: Trypanosoma 9 and 11 chromosomic sequence FTrypBT; assay: FRET-melting, FTrypBT; details: K+ condition, 2 μM compound, 0.2 μM oligonucleotide
Plasmodium falciparum W2 = assay: In vitro antiplasmodial activity, SYBR Green I, strain W2; details: Plasmodium falciparum, W2, 48 h, read-out: IC50 Plasmodium falciparum W2, chloroquine-resistant strain W2, 48-hour incubation
[6] = system: Plasmodium falciparum 3D7; assay: In vitro antiplasmodial activity, SYBR Green I, strain 3D7; details: Plasmodium falciparum, 3D7, 48 h, read-out: IC50 Plasmodium falciparum 3D7, chloroquine-sensitive strain 3D7, 48-hour incubation
[7] = Cytotoxicity evaluation, MTT; type: cell-based, human; details: HepG2 cells (hepatocarcinoma-derived, ATCC HB-8065); human HepG2 cells, 72 hours, MTT
Protocol: The aim of this assay was to evaluate the impact of metabolic activation of the tested compounds on cell viability.
A cytotoxicity evaluation was performed using the method reported in Emami S A et al., Iran J Basic Med Sci 2012; 15:807-11 to determine the cytotoxic concentrations 50% (CC50) and using doxorubicin as a cytotoxic reference compound. These assays were performed in human HepG2 cells. HepG2 cells were purchased from ATCC (ref HB-8065). These cells are a commonly used human hepatocarcinoma-derived cell line that has characteristics similar to those of primary hepatocytes. These cells express many hepatocyte-specific metabolic enzymes, thus enabling the cytotoxicity of tested product metabolites to be evaluated. Briefly, cells in 100 μl of complete RPMI medium [RPMI supplemented with 10% FCS, 1% 1-glutamine (200 mM), penicillin (100 U/ml), and streptomycin (100 μg/ml)] were inoculated into each well of 96-well plates and incubated at 37° C. in a humidified chamber in 6% CO2. After 24 hours, 100 μl of medium with test compound at various concentrations dissolved in DMSO (final concentration less than 0.5% v/v) was added, and the plates were incubated for 72 hours at 37° C. Duplicate assays were performed for each sample. Each well was microscopically examined for precipitate formation before the medium was aspirated from the wells. After aspiration, 100 μl of MTT solution (0.5 mg/ml in medium without FCS) were then added to each well. Cells were incubated for 2 hours at 37° C. MTT solution was removed, and DMSO (100 μl) was added to dissolve the resulting blue formazan crystals. Plates were shaken vigorously (300 rpm) for 5 min. The absorbance was measured at 570 nm with 630 nm as reference wavelength in a BIO-TEK ELx808 Absorbance Microplate Reader. DMSO was used as blank and doxorubicin (Sigma-Aldrich) as positive control. Cell viability was calculated as percentage of control (cells incubated without compound).

[8] = system: T. brucei brucei AnTat 1.9; assay: In vitro antitrypanosomal activity, Alamar Blue assay; type: cell-based, Trypanosoma brucei brucei; details: Trypanosoma brucei, read-out: IC50 T. brucei brucei
Protocol: The effects of the tested compounds on the growth of T. brucei brucei were assessed using an Alamar Blue® assay described in B. Raz et al., Acta Trop. 1997, 68, 139. T. brucei brucei AnTat 1.9 (IMTA, Antwerpen, Belgium) was cultured in MEM with Earle's salts, supplemented according to the protocol disclosed in T. Baltz et al., EMBO J. 1985, 4, 1273, with the following modifications: 0.5 mM mercaptoethanol (Sigma-Aldrich), 1.5 mM 1-cysteine (Sigma-Aldrich), 0.05 mM bathocuproine sulfate (Sigma-Aldrich), and 20% heat-inactivated horse serum (Gibco, France) at 37° C. and 5% CO2. Samples were incubated at an average density of 2000 parasites/well in sterile 96-well plates (Fisher, France) with various concentrations of compounds dissolved in 0.9% NaCl. All doses were tested in duplicate. Appropriate controls treated with solvents 0.9% NaCl or DMSO or with suramin, pentamidine, eflornithine, and fexinidazole (reference drugs purchased from Sigma-Aldrich and Fluorochem, UK) were added to each set of experiments. After a 69-hour incubation at 37° C., 10 μl of the viability marker Alamar Blue (Fisher) was added to each well, and the plates were incubated for 5 hour. The plates were read in a PerkinElmer ENSPIRE (Germany) microplate reader using an excitation wavelength of 530 nm and an emission wavelength of 590 nm. The IC50 was defined as the concentration of drug necessary to inhibit by 50% the activity of T. brucei brucei compared to the control. IC50 values were calculated using a non-linear regression analysis of dose-response curves performed using GraphPad Prism software (USA). IC50 values were calculated from three independent experiments.

[9] = 69-hour incubation, Alamar Blue

Structure (SMILES): CN(C)CCCCCNCc1ccc(-c2nc(-c3ccccc3)c3ccn(-c4ccc(CNCCCCCN(C)C)cc4)c3n2)cc1 [Compound 35B, oxalate]
- IC50 (SARS-CoV-2): 0.56 µM
- FRET-melting values in K+ conditions at 2 μM ΔTm F21T [1]: 27.23 °C
- FRET-melting values in K+ conditions at 2 μM ΔTm FdxT [2]: 3.49 °C
- FRET-melting values in K+ conditions at 2 μM ΔTm FPf1T [3]: 25.4 °C
- FRET-melting values in K+ conditions at 2 μM ΔTm FPf8T [4]: 33.76 °C
- FRET-melting values in K+ conditions at 2 μM ΔTm FtryBT [5]: 21.55 °C
- IC50 (Plasmodium falciparum W2): 4.74 ± 0.9 µM
- IC50 [6]: 6.76 ± 0.47 µM

Structure (SMILES): CN(C)CCCNCc1ccc(-c2nc(-c3ccc(CNCCCN(C)C)cc3)c3ccsc3n2)cc1 [Compound 26B, 2,4-Bis{4-[(4-dimethylaminopropyl)aminomethyl]phenyl}thieno[2,3-d]pyrimidine oxalate]
- IC50 at 72 h [7]: 2.79 µM
- IC50 [8, 9]: 0.46 ± 0.04 µM
- FRET-melting values in K+ conditions at 2 μM ΔTm F21T [1]: 14.1 °C
- FRET-melting values in K+ conditions at 2 μM ΔTm FdxT [2]: 0.3 °C
- FRET-melting values in K+ conditions at 2 μM ΔTm FPf1T [3]: 11.2 °C
- FRET-melting values in K+ conditions at 2 μM ΔTm FPf8T [4]: 13.2 °C
- FRET-melting values in K+ conditions at 2 μM ΔTm FtryBT [5]: 8.6 °C
- IC50 (Plasmodium falciparum W2): 9.95 ± 1.47 µM
- IC50 [6]: 4.46 ± 0.35 µM

Structure (SMILES): CCN(CC)CCCCNCc1ccc(-c2nc(-c3ccc(CNCCCCN(CC)CC)cc3)c3ccn(-c4ccccc4)c3n2)cc1 [Compound 33B, oxalate]
- IC50 (SARS-CoV-2): 0.55 µM
- IC50 (Plasmodium falciparum W2): 0.7 ± 0.15 µM
- IC50 [6]: 2.47 ± 0.19 µM

Structure (SMILES): CN(C)CCCNCc1ccc(-c2nc(-c3ccc(CNCCCN(C)C)cc3)c3ccn(C)c3n2)cc1 [Compound 8B, 2,4-bis{4-[(3-dimethylaminopropyl)aminomethyl]phenyl}-7-methyl-7H-pyrrolo[2,3-d]pyrimidine oxalate]
- IC50 at 72 h [7]: 16.4 µM
- IC50 ([8]; 69 h): 0.55 ± 0.05 µM
- FRET-melting values in K+ conditions at 2 μM ΔTm F21T [1]: 10.9 °C
- FRET-melting values in K+ conditions at 2 μM ΔTm FdxT [2]: −0.2 °C
- FRET-melting values in K+ conditions at 2 μM ΔTm FPf1T [3]: 10.3 °C
- FRET-melting values in K+ conditions at 2 μM ΔTm FPf8T [4]: 10.6 °C
- FRET-melting values in K+ conditions at 2 μM ΔTm FtryBT [5]: 9.4 °C
- IC50 (Plasmodium falciparum W2): 4.46 ± 0.6 µM
- IC50 [6]: 1.95 ± 0.69 µM

Structure (SMILES): CN(C)CCCNCc1ccc(-c2nc(-c3ccc(CNCCCN(C)C)s3)nc3c2ccn3-c2ccccc2)cc1 [Compound 7B, 4-{4-[(3-Dimethylaminopropyl)aminomethyl]phenyl}-2-{5-[(3-dimethylaminopropyl)aminomethyl]thien-2-yl}-7-phenyl-7H-pyrrolo[2,3-d]pyrimidine oxalate]
- IC50 at 72 h [7]: 1.91 µM
- IC50 ([8]; 69 h): 0.63 ± 0.07 µM
- FRET-melting values in K+ conditions at 2 μM ΔTm F21T [1]: 13.8 °C
- FRET-melting values in K+ conditions at 2 μM ΔTm FdxT [2]: −0.3 °C
- FRET-melting values in K+ conditions at 2 μM ΔTm FPf1T [3]: 11.5 °C
- FRET-melting values in K+ conditions at 2 μM ΔTm FPf8T [4]: 12.8 °C
- FRET-melting values in K+ conditions at 2 μM ΔTm FtryBT [5]: 10.5 °C
- IC50 (Plasmodium falciparum W2): 2.39 ± 0.08 µM
- IC50 [6]: 0.88 ± 0.24 µM

Structure (SMILES): CC(C)N(CCCCCNCc1ccc(-c2nc(-c3ccc(CNCCCCCN(C(C)C)C(C)C)cc3)c3ccn(-c4ccccc4)c3n2)cc1)C(C)C [Compound 34B, oxalate]
- IC50 (SARS-CoV-2): 0.17 µM
- IC50 (Plasmodium falciparum W2): 0.77 ± 0.07 µM
- IC50 [6]: 0.93 ± 0.15 µM

Structure (SMILES): CN(C)CCCNCc1ccc(-c2nc(NCCCN(C)C)nc3ccsc23)cc1 [Compound 31B, 2-(3-Dimethylaminopropylamino)-4-{4-[(4-dimethylaminopropyl)aminomethyl]phenyl}thieno[3,2-d]pyrimidine oxalate]
- IC50 at 72 h [7]: > 60 µM
- IC50 [8, 9]: 2.58 ± 0.21 µM
- FRET-melting values in K+ conditions at 2 μM ΔTm F21T [1]: 2.0 °C
- FRET-melting values in K+ conditions at 2 μM ΔTm FdxT [2]: −0.7 °C
- FRET-melting values in K+ conditions at 2 μM ΔTm FPf1T [3]: 1.8 °C
- FRET-melting values in K+ conditions at 2 μM ΔTm FPf8T [4]: 2.9 °C
- FRET-melting values in K+ conditions at 2 μM ΔTm FtryBT [5]: 1.8 °C
- IC50 (Plasmodium falciparum W2): 5.69 ± 1.21 µM
- IC50 [6]: 0.04 ± 0.01 µM

Structure (SMILES): CN(C)CCCNCc1ccc(-c2nc(-c3ccc(CNCCCN(C)C)s3)c3ccn(-c4ccccc4)c3n2)cc1 [Compound 6B, 2-{4-[(3-Dimethylaminopropyl)aminomethyl]phenyl}-4-{5-[(3-dimethylaminopropyl)aminomethyl]thien-2-yl}-7-phenyl-7H-pyrrolo[2,3-d]pyrimidine oxalate]
- IC50 at 72 h [7]: 1.74 µM
- IC50 ([8]; 69 h): 0.14 ± 0.02 µM
- FRET-melting values in K+ conditions at 2 μM ΔTm F21T [1]: 25.5 °C
- FRET-melting values in K+ conditions at 2 μM ΔTm FdxT [2]: 1.7 °C
- FRET-melting values in K+ conditions at 2 μM ΔTm FPf1T [3]: 26.3 °C
- FRET-melting values in K+ conditions at 2 μM ΔTm FPf8T [4]: 26.6 °C
- FRET-melting values in K+ conditions at 2 μM ΔTm FtryBT [5]: 23.1 °C
- IC50 (Plasmodium falciparum W2): 0.75 ± 0.16 µM
- IC50 [6]: 1.21 ± 0.18 µM

Structure (SMILES): CN1CCN(CCCNCc2ccc(-c3nc(-c4ccc(CNCCCN5CCN(C)CC5)cc4)c4ccsc4n3)cc2)CC1 [Compound 27B, 2,4-Bis{4-[(3-(4-methylpiperazin-1-yl)propyl)aminomethyl]phenyl}thieno[2,3-d]pyrimidine oxalate]
- IC50 at 72 h [7]: 11.2 µM
- IC50 ([8]; 69 h): 0.89 ± 0.1 µM
- FRET-melting values in K+ conditions at 2 μM ΔTm F21T [1]: 9.72 °C
- FRET-melting values in K+ conditions at 2 μM ΔTm FdxT [2]: −0.10 °C
- FRET-melting values in K+ conditions at 2 μM ΔTm FPf1T [3]: 9.6 °C
- FRET-melting values in K+ conditions at 2 μM ΔTm FPf8T [4]: 9.0 °C
- FRET-melting values in K+ conditions at 2 μM ΔTm FtryBT [5]: 7.9 °C
- IC50 (Plasmodium falciparum W2): 4.18 ± 0.03 µM
- IC50 [6]: 1.95 ± 0.68 µM

Structure (SMILES): CN(C)CCCNCc1ccc(-c2nc(-c3ccc(CNCCCN(C)C)cc3)c3sccc3n2)cc1 [Compound 29B, 2,4-Bis{4-[(4-dimethylaminopropyl)aminomethyl]phenyl}thieno[3,2-d]pyrimidine oxalate]
- IC50 at 72 h [7]: 3.19 µM
- IC50 [8, 9]: 0.14 ± 0.02 µM
- FRET-melting values in K+ conditions at 2 μM ΔTm F21T [1]: 19.0 °C
- FRET-melting values in K+ conditions at 2 μM ΔTm FdxT [2]: 1.8 °C
- FRET-melting values in K+ conditions at 2 μM ΔTm FPf1T [3]: 20.1 °C
- FRET-melting values in K+ conditions at 2 μM ΔTm FPf8T [4]: 20.9 °C
- FRET-melting values in K+ conditions at 2 μM ΔTm FtryBT [5]: 17.1 °C
- IC50 (Plasmodium falciparum W2): 2.17 ± 0.41 µM
- IC50 [6]: 1.37 ± 0.24 µM
